Assays:
[1] = tested on: Chloroform-induced arrhythmia; assay: Chloroform-induced arrhythmia (mice); conditions: for minimal effective dose: Mus musculus, po, 1 h, read-out: Effective dose; for Lethal dose: peroral, mice
Protocol: (1) Chloroform-induced arrhythmia (mice):
Ventricular arrhythmia was caused experimentally in mice by the following method.
The mice were placed in a device filled with chloroform gas. After expiring, the ventricular pulse was counted from a record of an electrocardiogram. The antiarrhythmic activity of the test compound was determined based on its effect of relieving tachycardia. […] The compounds were tested by administration by two routes, i.e. peroral and intravenous injection. […] As comparative standard medicines, quinidine, disopyramide and phenytoin were employed. This method is taught in the publication, J. Pharmacol. Exp. Ther. 160,22 (1968), by J. W. Lawson.

myocardia = assay: Contraction of the myocardia; conditions: dose several times as much as that required for the antiarrhythmic effects
From the text: This property is quite preferred when they are used as antiarrhythmic agents.

[2] = Acute toxicity (rats), peroral; conditions: rat, in vivo, po
From the text: (3) Acute toxicity (rats):
The acute toxicity tests on rats (peroral administration) were effected using typical compounds of the present invention, i.e. 6-chloro-2,2-dimethyl-1'-[3-(4-hydroxypiperidino)propyl]spiro[chroman-4,4'-imidazolidine]-2',5'-dione (compound 1) and 2,2-dimethyl-6-fluoro-1'-[3-(4-hydroxypiperidino)propyl]-spiro[chroman-4,4'-imidazolidine]-2',5'-dione (compound 2).

| SMILES | minimal effective dose [1] [mg/kg] | Lethal dose [1] [mg/kg] | contraction power of the myocardia (myocardia) | LD50 ([2]; female rats) [mg/kg] | LD50 ([2]; male rats) [mg/kg] |
| --- | --- | --- | --- | --- | --- |
| CC1(C)CC2(NC(=O)N(CCCN3CCC(O)CC3)C2=O)c2cc(Cl)cc(Cl)c2O1 (stereo not shown) | 12.5 | 400 | – | – | – |
| CC1(C)CC2(NC(=O)N(CCCN3CCC(O)CC3)C2=O)c2cc(Cl)ccc2O1 (stereo not shown) [drawing 12] | 25 | 400 | – | – | – |
| CN(C)CCN1C(=O)NC2(CC(C)(C)Oc3ccc(F)cc32)C1=O (stereo not shown) | 50 | 400 | – | – | – |
| C=C[C@H]1C[N@@]2CC[C@H]1C[C@@H]2[C@@H](O)c1ccnc2ccc(OC)cc12 [quinidine] | – | – | reduce the contraction power of the myocardia | – | – |
| C=CC1CN2CCC1CC2C(O)c1ccnc2ccc(OC)cc12 (stereo not shown) [Quinidine sulfonate, reference compound] | 200 | 800 | – | – | – |
| CC1(C)CC2(NC(=O)N(CCCN3CCC(c4ccccc4)CC3)C2=O)c2cc(F)ccc2O1 (stereo not shown) | 50 | 200 | – | – | – |
| CC1(C)CC2(NC(=O)N(CCCN3CCC(O)CC3)C2=O)c2cc(F)ccc2O1 (stereo not shown) [drawing 13] | 25 | 400 | – | – | – |
| CC1(C)CC2(NC(=O)N(CCCN3CCC(O)CC3)C2=O)c2cc(F)ccc2O1 (stereo not shown) [Compound 2, 2,2-dimethyl-6-fluoro-1'-[3-(4-hydroxypiperidino)propyl]-spiro[chroman-4,4'-imidazolidine]-2',5'-dione] | – | – | – | 780 | 860 |
| CCN(CC)CCN1C(=O)NC2(CC(C)(C)Oc3ccc(F)cc32)C1=O (stereo not shown) | 12.5 | 200 | – | – | – |
| O=C1NC(=O)C(c2ccccc2)(c2ccccc2)N1 [Phenytoin sodium, reference compound] | 100 | > 800 | – | – | – |
| CC(C)N(CCC(C(N)=O)(c1ccccc1)c1ccccn1)C(C)C (stereo not shown) [Disopyramide phosphate, reference compound] | 50 | 600 | – | – | – |
| COC1CCN(CCCN2C(=O)NC3(CC(C)(C)Oc4ccc(F)cc43)C2=O)CC1 (stereo not shown) | 25 | 400 | – | – | – |
| CC1CC2(NC(=O)N(CCCN(C)C)C2=O)c2cc(Cl)ccc2O1 (stereo not shown) | 12.5 | 50 | – | – | – |
| CCC1(CC)CC2(NC(=O)N(CCCN3CCC(O)CC3)C2=O)c2cc(F)ccc2O1 (stereo not shown) | 25 | 400 | – | – | – |
| CC(C)N(CCN1C(=O)NC2(CC(C)(C)Oc3ccc(F)cc32)C1=O)C(C)C (stereo not shown) | 25 | 200 | – | – | – |
| CCC1(CC)CC2(NC(=O)N(CCCN(C)C)C2=O)c2cc(Cl)ccc2O1 (stereo not shown) | 25 | 400 | – | – | – |
| CC1(C)CC2(NC(=O)N(CCCN3CCC(O)CC3)C2=O)c2cc(Cl)ccc2O1 (stereo not shown) [Compound 1, 6-chloro-2,2-dimethyl-1'-[3-(4-hydroxypiperidino)propyl]spiro[chroman-4,4'-imidazolidine]-2',5'-dione] | – | – | – | 858 | 930 |
| CC(C)N(CCC(C(N)=O)(c1ccccc1)c1ccccn1)C(C)C (stereo not shown) [disopyramide] | – | – | reduce the contraction power of the myocardia | – | – |

Source: patent US4650798A, “Antiarrhythmic 2,2-dialkyl-1-(aminoalkyl)-spiro[chroman-4,4'-imidazolidine]-2',5'-dione s” (priority 1984, dated 1987)
